Assay results published in ChEMBL document CHEMBL1154073, “Combining selectivity and affinity predictions using an integrated Support Vector Machine (SVM) approach: An alternative tool to discriminate between the human adenosine A(2A) and A(3) receptor pyrazolo-triazolo-pyrimidine antagonists binding sites” (Bioorg Med Chem, 2009).

Tests used:
Adenosine receptor A3 = molecular target: T1, Adenosine receptor A3 (Homo sapiens, UniProt P0DMS8); test: Displacement of [3H]NECA from human adenosine A3 receptor expressed in CHO cells; assay type: cell-based
T1 sequence (P0DMS8 whole entry): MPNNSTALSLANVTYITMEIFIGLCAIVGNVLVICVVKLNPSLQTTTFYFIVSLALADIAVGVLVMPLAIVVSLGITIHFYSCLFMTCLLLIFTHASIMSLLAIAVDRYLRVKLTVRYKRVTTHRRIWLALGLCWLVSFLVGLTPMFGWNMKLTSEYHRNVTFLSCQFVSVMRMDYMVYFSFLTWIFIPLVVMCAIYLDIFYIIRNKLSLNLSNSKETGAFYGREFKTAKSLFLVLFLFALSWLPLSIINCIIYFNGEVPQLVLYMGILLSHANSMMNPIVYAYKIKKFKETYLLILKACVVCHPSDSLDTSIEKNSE

Adenosine receptor A2a = Adenosine receptor A2a (Homo sapiens, UniProt P29274); test: biochemical
Sequence of Adenosine receptor A2a (P29274 whole entry): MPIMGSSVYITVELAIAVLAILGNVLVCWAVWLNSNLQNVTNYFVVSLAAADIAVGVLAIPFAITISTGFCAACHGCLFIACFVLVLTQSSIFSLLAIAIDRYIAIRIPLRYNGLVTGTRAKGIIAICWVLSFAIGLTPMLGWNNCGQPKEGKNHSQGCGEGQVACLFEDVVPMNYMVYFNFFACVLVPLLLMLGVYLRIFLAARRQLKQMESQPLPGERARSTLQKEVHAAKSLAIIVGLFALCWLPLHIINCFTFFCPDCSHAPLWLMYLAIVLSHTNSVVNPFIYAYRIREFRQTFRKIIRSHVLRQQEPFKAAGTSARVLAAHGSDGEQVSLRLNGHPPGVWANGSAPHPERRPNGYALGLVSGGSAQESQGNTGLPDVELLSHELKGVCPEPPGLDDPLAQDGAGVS
Description: Displacement of [3H]NECA from human adenosine A2A receptor expressed in CHO cells

Adenosine receptor A2b = molecular target: T2, Adenosine receptor A2b (Homo sapiens, UniProt P29275); test: Antagonist activity at human adenosine A2B receptor expressed in CHO cells assessed as inhibition of NECA-induced adenylyl cyclase activity; assay type: functional, cell-based
T2 sequence (P29275 whole entry): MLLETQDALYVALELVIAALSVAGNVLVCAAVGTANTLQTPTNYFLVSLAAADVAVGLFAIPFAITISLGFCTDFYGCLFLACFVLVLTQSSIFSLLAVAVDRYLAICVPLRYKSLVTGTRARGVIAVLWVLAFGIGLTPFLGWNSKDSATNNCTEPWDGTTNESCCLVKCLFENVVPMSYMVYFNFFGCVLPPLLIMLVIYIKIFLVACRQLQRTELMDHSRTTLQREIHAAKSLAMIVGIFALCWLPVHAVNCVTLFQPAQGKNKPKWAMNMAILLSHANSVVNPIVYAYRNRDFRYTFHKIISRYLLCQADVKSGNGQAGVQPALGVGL

Adenosine receptor A1 = molecular target: T3, Adenosine receptor A1 (Homo sapiens, UniProt P30542); test: Displacement of [3H]CCPA from human adenosine A1 receptor expressed in CHO cells; assay type: cell-based
T3 sequence (P30542 whole entry): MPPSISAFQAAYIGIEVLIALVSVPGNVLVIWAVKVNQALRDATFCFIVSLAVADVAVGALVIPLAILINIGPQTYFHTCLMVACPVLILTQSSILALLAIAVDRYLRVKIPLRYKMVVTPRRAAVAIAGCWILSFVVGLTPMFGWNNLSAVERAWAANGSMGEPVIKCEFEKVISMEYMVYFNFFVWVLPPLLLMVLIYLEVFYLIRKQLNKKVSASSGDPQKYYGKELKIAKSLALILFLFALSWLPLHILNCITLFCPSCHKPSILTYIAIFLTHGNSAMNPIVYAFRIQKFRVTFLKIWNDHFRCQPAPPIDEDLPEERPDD

Row | Ki (Adenosine receptor A3) [nM] | Ki (Adenosine receptor A2a) [nM] | IC50 (Adenosine receptor A2b) [nM] | Ki (Adenosine receptor A1) [nM] | Structure (SMILES)
1 | 3760 | – | – | – | CCn1cc2c(nc(N)n3nc(-c4ccco4)nc23)n1
2 | > 1000 | – | – | – | COc1ccc(CC(=O)Nc2nc3nn(C)c(SC)c3c3nc(-c4ccco4)nn23)cc1
3 | 343 | 305 | > 100000 | 710 | O=C(Cc1cccc2ccccc12)Nc1nc2nn(CCCc3ccccc3)cc2c2nc(-c3ccco3)nn12
4 | – | 288 | – | – | CC(C)(C)OC(=O)NCCCC(=O)Nc1nc2nn(CCc3ccccc3)cc2c2nc(-c3ccco3)nn12
5 | – | 297 | – | – | CC(C)CCn1cc2c(nc(NC(=O)CCCNC(=O)OC(C)(C)C)n3nc(-c4ccco4)nc23)n1
6 | > 10000 | 0.43 | – | – | CCOC(=O)COc1ccc(CCCn2ncc3c2nc(N)n2nc(-c4ccco4)nc32)cc1
7 | 3.05 | 74.6 | > 50000 | 596 | CCn1cc2c(nc(NC(=O)Cc3cccc4ccccc34)n3nc(-c4ccco4)nc23)n1
8 | 14.2 | 70.9 | > 50000 | 557 | CCn1cc2c(nc(NC(=O)Cc3ccc(-c4ccccc4)cc3)n3nc(-c4ccco4)nc23)n1
9 | 1.2 | 114 | 780 | 129 | CCCCn1cc2c(nc(NC(=O)C(c3ccccc3)c3ccccc3)n3nc(-c4ccco4)nc23)n1
10 | > 1000 | 50 | – | – | CSc1c2c(nc(NC(=O)Cc3ccc(OCC(C)C)cc3)n3nc(-c4ccco4)nc23)nn1C
11 | 189 | 39.6 | 8630 | 381 | CCCCn1cc2c(nc(NC(=O)Cc3ccc(-c4ccccc4)cc3)n3nc(-c4ccco4)nc23)n1
12 | > 10000 | 5.48 | – | – | CCOC(=O)[C@H]1Oc2ccc(CCCn3ncc4c3nc(N)n3nc(-c5ccco5)nc43)cc2O1
13 | 65.4 | 52.5 | > 10000 | 622 | CCCn1cc2c(nc(NC(=O)Cc3ccc(-c4ccccc4)cc3)n3nc(-c4ccco4)nc23)n1
14 | 12.7 | 156 | > 50000 | 1850 | Cn1cc2c(nc(NC(=O)Cc3ccc(Cl)cc3)n3nc(-c4ccco4)nc23)n1
15 | 125 | 46.9 | 11100 | 84.3 | O=C(Cc1ccc(-c2ccccc2)cc1)Nc1nc2nn(CCc3ccccc3)cc2c2nc(-c3ccco3)nn12
16 | 6.49 | 53.1 | 5840 | 115 | O=C(Nc1nc2nn(CCc3ccccc3)cc2c2nc(-c3ccco3)nn12)C(c1ccccc1)c1ccccc1
17 | 0.98 | 131 | – | – | CCn1cc2c(nc(NC(=O)C(c3ccccc3)c3ccccc3)n3nc(-c4ccco4)nc23)n1
18 | 11.2 | 193 | > 10000 | 1460 | Cn1cc2c(nc(NC(=O)Cc3ccc(-c4ccccc4)cc3)n3nc(-c4ccco4)nc23)n1
19 | 2310 | 16.1 | – | – | CC(C)CCn1cc2c(nc(NC(=O)COc3ccc(Cl)cc3)n3nc(-c4ccco4)nc23)n1

Row | Ki (Adenosine receptor A3) [nM] | Ki (Adenosine receptor A2a) [nM] | IC50 (Adenosine receptor A2b) [nM] | Ki (Adenosine receptor A1) [nM] | Structure (SMILES)
20 | 71 | 3600 | – | – | O=C(Nc1cccc(Cl)c1)Nc1nc2nn(CCc3c(Br)cc(Br)cc3Br)cc2c2nc(-c3ccco3)nn12
21 | > 10000 | 59 | – | – | Nc1nc2c(cnn2CCCc2ccc3c(c2)O[C@@H](C(=O)O)O3)c2nc(-c3ccco3)nn12
22 | 0.93 | 46.5 | 491 | 80.2 | CCCn1cc2c(nc(NC(=O)C(c3ccccc3)c3ccccc3)n3nc(-c4ccco4)nc23)n1
23 | 540 | 3.88 | – | – | CC(C)CCn1cc2c(nc(NC(=O)Cc3ccsc3)n3nc(-c4ccco4)nc23)n1
24 | 180 | 42.1 | > 50000 | 57.5 | O=C(Cc1ccc2ccccc2c1)Nc1nc2nn(CCc3ccccc3)cc2c2nc(-c3ccco3)nn12
25 | 16 | 3260 | – | – | COc1ccc(NC(=O)Nc2nc3nn(Cc4cccc5ccccc45)cc3c3nc(-c4ccco4)nn23)cc1
26 | 25 | 2030 | – | – | COc1ccc(NC(=O)Nc2nc3nn(CCc4c(Br)cc(Br)cc4Br)cc3c3nc(-c4ccco4)nn23)cc1
27 | 359 | 1.95 | – | – | COc1ccc(CC(=O)Nc2nc3nn(CCC(C)C)cc3c3nc(-c4ccco4)nn23)cc1
28 | 0.95 | 62.5 | > 10000 | 133 | COc1ccc(CC(=O)Nc2nc3nn(C)cc3c3nc(-c4ccco4)nn23)cc1
29 | 409 | 15.7 | > 10000 | 140 | CC(C)CCn1cc2c(nc(NC(=O)Cc3ccc4ccccc4c3)n3nc(-c4ccco4)nc23)n1
30 | > 10000 | 4 | – | – | CCOC(=O)c1ccc(CCn2ncc3c2nc(N)n2nc(-c4ccco4)nc32)cc1
31 | 0.48 | 176 | – | – | C=Cn1cc2c(nc(NC(=O)Nc3ccc(OC)cc3)n3nc(-c4ccco4)nc23)n1
32 | 4480 | 348 | – | – | Nc1nc2nn(CCc3c(Br)cc(Br)cc3Br)cc2c2nc(-c3ccco3)nn12
33 | > 10000 | 75 | – | – | Nc1nc2c(cnn2CCCc2ccc3c(c2S(=O)(=O)O)OCO3)c2nc(-c3ccco3)nn12
34 | 5.86 | 159 | > 10000 | 441 | CC(C)CCn1cc2c(nc(NC(=O)C(c3ccccc3)c3ccccc3)n3nc(-c4ccco4)nc23)n1
35 | 3250 | 31.7 | – | – | O=C(COc1ccc(Cl)cc1)Nc1nc2nn(CCc3ccccc3)cc2c2nc(-c3ccco3)nn12
36 | 36.3 | 18.4 | 10400 | 185 | CCn1cc2c(nc(NC(=O)Cc3ccc4ccccc4c3)n3nc(-c4ccco4)nc23)n1
37 | 0.25 | 216 | 363 | 139 | Cn1cc2c(nc(NC(=O)C(c3ccccc3)c3ccccc3)n3nc(-c4ccco4)nc23)n1
38 | 1.94 | 30.5 | 8960 | 410 | Cn1cc2c(nc(NC(=O)Cc3cccc(Cl)c3)n3nc(-c4ccco4)nc23)n1

Row | Structure (SMILES) | Ki (Adenosine receptor A3) [nM] | Ki (Adenosine receptor A2a) [nM] | IC50 (Adenosine receptor A2b) [nM] | Ki (Adenosine receptor A1) [nM]
39 | O=C(Cc1cccc(Cl)c1)Nc1nc2nn(CCc3ccccc3)cc2c2nc(-c3ccco3)nn12 | 273 | – | 9100 | 13.2
40 | O=C(Cc1ccsc1)Nc1nc2nn(CCc3ccccc3)cc2c2nc(-c3ccco3)nn12 | 726 | – | > 10000 | 22.8
41 | CC(C)CCn1cc2c(nc(NC(=O)Cc3cccs3)n3nc(-c4ccco4)nc23)n1 | 308 | – | – | –
42 | CCCCn1cc2c(nc(NC(=O)Cc3ccc4ccccc4c3)n3nc(-c4ccco4)nc23)n1 | 174 | 7.94 | – | –
43 | Cn1cc2c(nc(NC(=O)COc3ccccc3)n3nc(-c4ccco4)nc23)n1 | 692 | – | – | –
44 | O=C(Cc1cccs1)Nc1nc2nn(CCc3ccccc3)cc2c2nc(-c3ccco3)nn12 | 330 | – | > 10000 | 18.5
45 | CCCCn1cc2c(nc(NC(=O)Cc3cccc4ccccc34)n3nc(-c4ccco4)nc23)n1 | 100 | – | 7370 | 170
46 | O=C(COc1ccc(Cl)cc1)Nc1nc2nn(CCCc3ccccc3)cc2c2nc(-c3ccco3)nn12 | 400 | – | > 10000 | 71.1
47 | CC(C)CCn1cc2c(nc(NC(=O)Cc3ccc(-c4ccccc4)cc3)n3nc(-c4ccco4)nc23)n1 | 268 | – | 8960 | 84.3
48 | COc1ccc(CC(=O)Nc2nc3nn(CCCc4ccccc4)cc3c3nc(-c4ccco4)nn23)cc1 | 120 | – | – | –
